Reference: patent US9422321B2, “Pyrimidine nucleoside derivatives, synthesis methods and uses thereof for preparing anti-tumor and anti-virus medicaments” (High & New Technology Research Center, Henan Academy of …, priority 2010, dated 2016)

Tests used:
VSVG/HIV-luc (NL4-3) = test: microbe, parasite or virus in culture; assay type: cell-based, HIV-1; conditions: Human immunodeficiency virus 1, NL43, HEK-293T; for EC50: 48 h, read-out: EC50 (μM) VSVG/HIV-luc (NL4-3); for inhibition at 10 µM: read-out: Inhibitory activity at 10 μM
HBsAg = test: In vitro inhibition of HBV: HBsAg in HepG2.2.15 cells by ELISA; assay type: cell-based; conditions: Hepatitis B virus, HepG2.2.15, read-out: IC50 (μM) (HBsAg)
Description: (§1) A tube of frozen HepG2.2.15 cells taken from a liquid nitrogen tank was quickly placed into a water bath at 42° C. and shaken to thaw. DMEM complete medium (fetal bovine serum 10%, G418 380 μg/mL, Penicillin 100 U/ml, Streptomycin 100 U/ml) was used for cell culturing at conditions of 37° C. and 5% CO2. The number of cell passage in normal growing cells was once per 2-3 days.
(§2) The effect of a compound on HBV surface antigen s and antigen e in the cell culture was detected using a screening concentration lower than the half toxic concentration of the compound. HepG2.2.15 cells in logarithmic growth phase were selected and digested with trypsin into single cell suspension, and were seeded to a 24-well plate at a concentration of 2×10^4/mL, 1 mL per well. Media of different medicament concentrations were added, three wells for each concentration, and cells added with complete medium were set as normal control. Cell supernatants and cells at day 3, day 6 and day 9 were collected and kept under −20° C. The intracellular and extracellular expressions of e antigen and surface antigen at day 3, day 6 and day 9 were determined by ELISA.
(§3) 2.4 Effect of the Compound on HBeAg and HBsAg in HepG2.2.15 Cell Supernatant Detected by ELISA
(§4) The instructions of the kit were followed;
(§5) Measurement: OD value of each well was read from microplate reader using dual wavelength 450/630 nm.
(§6) Result determination: The Cutoff value was first calculated according to equation: COV=average OD of negative control×2.1. Then, if a sample had OD≧COV, the result was determined as positive, or if a sample had OD≦COV, the result was determined as negative.

[1] = MTT test of cytotoxicity on HepG2.2.15 cells; assay type: cell-based; conditions: human, read-out: CC50 (μM) (HepG2. 2. 15)
Description: as §1
Cytotoxicity of the compound on HepG2.2.15 cells was tested with the MTT colorimetric assay established by Mosmann. After continuous incubation for 72 h, 10 μL MTT was added to each well. Four hours later, the supernatant was discarded and 200 μL DMSO was added to each well. The OD value in each well was read using a microplate reader (measurement wavelength 490 nm, reference wavelength 630 nm). The result was recorded and the percentage inhibition of HepG2.2.15 cells by each compound was calculated:
The half toxic concentration (TC50) of the medicament on cells was calculated according to the percentage inhibition of the cell by the medicament.

[2] = MTS test of effects of the compound on cell survival; assay type: cell-based; conditions: human, 293T cells
Description: Then, 20 μL freshly prepared mixture of MTS/PMS was added to each well and after 4 h incubation in the incubator at 37° C. with 5% CO2, the color was developed. The light absorption (OD) of each well at wavelengths 490 nm and 650 nm (background) was detected on an enzyme linked immuno analyzer, and the survival rate of cells was calculated.

HBeAg = test: In vitro inhibition of HBV: HBeAg in HepG2.2.15 cells by ELISA; assay type: cell-based; conditions: Hepatitis B virus, HepG2.2.15, read-out: IC50 (μM) (HBeAg)
Description: as §1, §2, §3, §4, §5, §6

Structure (SMILES)	EC50 (VSVG/HIV-luc (NL4-3)) [µM]	IC50 (HBsAg) [µM]	CC50 at 72 h [1] [µM]	CC50 at 44 h [2] [µM]	inhibition at 10 µM (VSVG/HIV-luc (NL4-3)) [%]	IC50 (HBeAg) [µM]
Cc1cn([C@H]2C[C@H](N=[N+]=[N-])[C@@H](CO)O2)c(=O)[nH]c1=O [Zidovudine, reference compound]	0.084 ± 0.0026					
[N-]=[N+]=N[C@]1(CO)O[C@@H](n2ccc(NCc3ccco3)nc2=O)C(F)C1O (stereo partly drawn) [Compound 5-09]	0.7 ± 0.1	0.19	≥ 25	≥ 25		
CCCCCCCNc1ccn([C@@H]2O[C@@](CO)(N=[N+]=[N-])C(O)C2F)c(=O)n1 (stereo partly drawn) [Compound 5-26]					33.9 ± 0.5	
[N-]=[N+]=N[C@]1(CO)O[C@@H](n2ccc(NCCCO)nc2=O)C(F)C1O (stereo partly drawn) [Compound 5-14]		2.46	668		6.3 ± 3.2	
[N-]=[N+]=N[C@]1(CO)O[C@@H](n2cc(C(=O)N3CCCC3)c(=O)[nH]c2=O)C(F)C1O (stereo partly drawn) [Compound 25]					16.8 ± 1.2	
COC(=O)[C@@H](Cc1cc2ccccc2[nH]1)Nc1ccn([C@@H]2O[C@@](CO)(N=[N+]=[N-])C(O)C2F)c(=O)n1 (stereo partly drawn) [Compound 7c]	0.5	0.2	≥ 280	≥ 25	38.8 ± 3.3	0.32
COC(=O)[C@H](CCSC)Nc1ccn([C@@H]2O[C@@](CO)(N=[N+]=[N-])C(O)C2F)c(=O)n1 (stereo partly drawn) [Compound 8g]	8.1 ± 5.5	19.6	> 250	≥ 25		
COC(=O)[C@H](Cc1ccccc1)Nc1ccn([C@@H]2O[C@@](CO)(N=[N+]=[N-])C(O)C2F)c(=O)n1 (stereo partly drawn) [Compound 8n]	5.4 ± 3		> 250	≥ 25		4.41
CN(C)c1ccn([C@@H]2O[C@@](CO)(N=[N+]=[N-])C(O)C2F)c(=O)n1 (stereo partly drawn) [Compound 5-21]	13 ± 6		> 250	≥ 25		15.5
[N-]=[N+]=N[C@]1(CO)O[C@@H](n2ccc(N[C@@H](Cc3cc4ccccc4[nH]3)C(=O)O)nc2=O)C(F)C1O (stereo partly drawn) [Compound 8d]	0.7 ± 0.1	0.03	≥ 25	≥ 25		0.36
CCN(CC)c1ccn([C@@H]2O[C@@](CO)(N=[N+]=[N-])C(O)C2F)c(=O)n1 (stereo partly drawn) [Compound 5-04]					8.6 ± 7.5	
COCCCNc1ccn([C@@H]2O[C@@](CO)(N=[N+]=[N-])C(O)C2F)c(=O)n1 (stereo partly drawn) [Compound 5-23]					10.4 ± 3.5	
[N-]=[N+]=N[C@]1(CO)O[C@@H](n2ccc(NCC(N)=O)nc2=O)C(F)C1O (stereo partly drawn) [Compound 7j]	10 ± 7		239	≥ 25		6.16
[N-]=[N+]=N[C@]1(CO)O[C@@H](n2cc(-c3ccco3)c(N)nc2=O)C(F)C1O (stereo partly drawn) [Compound 12]					15.8 ± 4.4	
[N-]=[N+]=N[C@]1(CO)O[C@@H](n2ccc(NCCCN)nc2=O)C(F)C1O (stereo partly drawn) [Compound 5-32]					0.9 ± 0.8	
[N-]=[N+]=N[C@]1(CO)O[C@@H](n2ccc(NCCc3c[nH]c4ccccc34)nc2=O)C(F)C1O (stereo partly drawn) [Compound 5-20]	5.8 ± 2.6		> 250	≥ 25		
CCONc1ccn([C@@H]2O[C@@](CO)(N=[N+]=[N-])C(O)C2F)c(=O)n1 (stereo partly drawn) [Compound 5-08]		0.12	572		15.6 ± 1.3	> 1
CC(Nc1ccn([C@@H]2O[C@@](CO)(N=[N+]=[N-])C(O)C2F)c(=O)n1)C(=O)O (stereo partly drawn) [Compound 8m]	0.5 ± 0.3			≥ 25		
[N-]=[N+]=N[C@]1(CO)O[C@@H](n2ccc(NNC(N)=O)nc2=O)C(F)C1O (stereo partly drawn) [Compound 5-30]					38.6 ± 5.7	
CONc1ccn([C@@H]2O[C@@](CO)(N=[N+]=[N-])C(O)C2F)c(=O)n1 (stereo partly drawn) [Compound 5-07]		< 0.01	418		29.4 ± 5.1	> 1
[N-]=[N+]=N[C@]1(CO)O[C@@H](n2ccc(NCc3ccccc3)nc2=O)C(F)C1O (stereo partly drawn) [Compound 5-16]					31.3 ± 4	
[N-]=[N+]=N[C@]1(CO)O[C@@H](n2cc(C#CCCO)c(=O)[nH]c2=O)C(F)C1O (stereo partly drawn) [Compound 14]					10 ± 5.9	
